Reference: patent EP0087397A2, “Propionylglycine derivative, process for its preparation and therapeutic compositions which contain it as the active principle” (Farmatis S.r.l., priority 1982, dated 1983)
Where a name gives a salt, the structure may show the parent alone. Read-outs that look alike come from different tables or passages of the source.

Legend:
[1] = test system: DIFCO gastric mucin; test: Mucolytic activity on gastric mucin (in vitro, Ostwald viscosimeter); type: biochemical; conditions: for Residual Viscosity in %: 5 minutes at 25°C, average of six readings, % of initial viscosity
Description: The mucolytic activity was measured using DIFCO gastric mucin (10 g dissolved in 100 ml of phyaiological solution).
(§1) The mucolytic compounds under test were incubated for 5 minutes at 25°C under constant agitation, mixing 1 ml of aqueous solution of product, having increasing molar quantities of the product being considered, with 10 ml of mucin. The viscosity was measured both before and after incubation, using an Ostwald viscosimeter with 1.5 mm capillaries. […] Each value represents the average of six readings.

[2] = test system: bronchial hypersecretion induced in rats using S02; test: In vivo mucolytic activity: bronchial hypersecretion induced by SO2; conditions: for number of rats which developed bronchial obstruction, expressed as a percentage of the animals not protected: oral 0.25 g/kg/die for two weeks, 300 ppm SO2 two hours per day, total 90 hours
Description: This was determined by means of bronchial hypersecretion induced in rats using […]. The rats were treated by oral administration of 0.25 g/kg/die of mucolytic product for a period of two weeks, followed by inhalation of 300 ppm of SO2 for two hours per day for a total of 90 hours.

[3] = Mucolytic activity on nonpurulent excreta (in vitro, viscosity); set-up: species or system chronic bronchitis patients; conditions: AC and MP in tamponed solution
Description: as §1
Mucolytic activity on nonpurulent excreta The mucolytic activity was measured using a pool of nonpurulent excreta obtained from chronic bronchitis patients. The excreta was diluted 1:1 with a physiological solution and homogenized for three minutes - using a glass homogenizer - and then filtered through gauze and used immediately. The method used here is the same as described in the previous paragraph. In this case, however, the residual viscosity was determined after 5 minutes at 25°C (a) and after 40 minutes at 37°C (b).

[4] = test system: aerosol histaminic shock; test: Antibronchospasmic activity, aerosol histaminic shock; type: in vivo; conditions: for time for the onset of the convulsions: 0.1 g/kg i.p., histamine aerosol two hours after pretreatment
Source text: […] The time was taken for the onset of the convulsions after having started administering the aerosol.

[5] = test system: intrabronchial desquamation and reactive hyperplasia of the mucosa; test: Trophic-protective activity, nebulized CCl4; type: in vivo, rats; conditions: 0.25 g/kg/die orally for ten days, nebulized CCl4, 5 applications of 2 minutes/die
Description: This was determined in rats by the administration of 0.25 g/kg/die, orally, of the product for a period of ten days while, contemporaneously, treating with nebulized CCl4 (5 applications of 2 minutes/die).

[6] = Acute toxicity; type: in vivo; conditions: mouse, in vivo, mice, read-out: DL50 (the source's name)
Source text: (§2) The acute toxicity determined in mice is shown by the values in Table 5 below: […]

[7] = test system: carragenin; test: Antiphlogistic activity, carragenin paw test; type: in vivo, rats; conditions: for ED50: Rattus norvegicus, sc, 3 h
Description: This was determined on rats by means of the administration of the product,using an esophagus probe, one hour before making a subcutaneous injection of 0.05 ml of 1% carragenin solution in the right hind paw. After three hours, the volume of the treated paw was compared to the left hind paw, using a plethysmograph.

[8] = test system: mice; test: Acute toxicity; type: in vivo
Source text: as §2

[9] = Pharmacokinetics: urinary elimination, titrimetric method; type: in vivo, rats; conditions: for dose excreted at 5 h: rat, urine, 800 mg/kg
Description: The pharmcokinetic tests were carried out on rats after having administered 0.8 g/kg of the new product, orally, and using an esophagus probe.
The urinary elimination tests were carried out using the ti- trimetric method. Each sample was treated with an equal volume of 20% HCL, titrating the sulfhydrylic groups with M/100 potassium bromate until the disappearance of the yellow color and calculating the amount of contained new compound (I) by means of a calibrated curve obtained by the same method. The velocity of urinary excretion is maximum within the first two hours after administration. Maximum values obtained after 5 hours amount to about 20% of the amount administered. Administering the same dose (0.8 g/kg) to a rat by means of a rectal suppository of very small dimensions, the cumulative amount in per cent eliminated in the urine within the first five hours is about 12 %.

[10] = test system: chronic bronchitis cases; test: Preliminary clinical tests in chronic bronchitis cases; type: in vivo; conditions: for diminuition of excreta viscosity: 4th-5th day of treatment, cone and plate rotary viscosimeter
Description: In the clinical field, preliminary tests were performed with the new compound by giving daily doses of 0.5 g,parenterally, 0.8 g, by aerosol, and 1 g,either orally or rectally, to chronic bronchitis cases. There was a progressive diminuition of excreta viscosity at the 4th-5th day of treatment, 70% in the case of purulent expectoration and 50% in the case of muco- purulent expectoration. The values were measured by means of a cone and plate, rotary viscosimeter. There was an average increase of 20% in vital capacity, 15% in VEMS and a reduction of residual volume of about 20%.
This test proves once more that the new product is well tolerated in comparison with the other compounds having free thiolic action.

[11] = test system: rats; test: Tolerability at the lung level (surfactant, type II pneumocytes) in rats of the chronic toxicity test; type: in vivo; conditions: at termination of chronic treatment
Source text: In order to evaluate the tolerability at the lung level, for the same rats undergoing the chronic toxicity test, a determination of the influence made at the surfactant level was done at the termination of the treatment. A phospholipids analysis was made, obtaining qualitative data by means of TLC chromographic analysis and quantitative data by phosphorous determination. Gas chromographic analysis was made of the fatty acid content in liposomes separated.by centrifuging from the liquid in which the excised lungs had been washed.

[12] = test system: rats and dogs; test: Subacute and chronic toxicity, gastric probe; type: in vivo; conditions: subacute 12 weeks in rats; chronic 6 months in rats and dogs, 0.1 - 0.5 g/kg/die; statement also covers fetal toxicity tests
Description: The subacute toxicity of the new product being practically the same for either case of oral or endovenous administration, the administration was only done by.means of a gastric probe.
(§3) The subacute toxicity tests were carried out for 12 weeks on the rats, the chronic toxicity on rats and dogs for 6 months (0.1 - 0.5 g/kg/die) and the fetal toxicity tests were carried out on rats (0.1 - 0.5 g/kg/die between the 6th and 16th days gravidity) and on rabbits (0.1 - 0.3 g/kg/die between the 6th and 18th days of gravidity).

[13] = test system: rats, rabbits; test: Fetal toxicity; type: in vivo; conditions: rats 0.1 - 0.5 g/kg/die, 6th to 16th day of gravidity; rabbits 0.1 - 0.3 g/kg/die, 6th to 18th day
Description: as §3

[14] = Molar Conc. 0.015, (a) after 5 minutes at 25°C
[15] = Molar Conc. 0.015, (b) after 40 minutes at 37°C
[16] = Molar Conc. 0.03, (a) after 5 minutes at 25°C
[17] = Molar Conc. 0.03, (b) after 40 minutes at 37°C
[18] = Molar Conc. 0.06, (a) after 5 minutes at 25°C
[19] = Molar Conc. 0.06, (b) after 40 minutes at 37°C
[20] = esophagus probe one hour before 0.05 ml 1% carragenin s.c. in right hind paw, paw volume after three hours, read-out: DE50 (the source's name)
[21] = daily 0.5 g parenterally, 0.8 g aerosol or 1 g orally or rectally

Structure (SMILES)	Residual Viscosity in % ([1]; Molar Conc. 0.015, 15000 µM) [%]	Residual Viscosity in % ([1]; Molar Conc. 0.03, 30000 µM) [%]	Residual Viscosity in % ([1]; Molar Conc. 0.06, 60000 µM) [%]	number of rats which developed bronchial obstruction, expressed as a percentage of the animals not protected [2] [%]	Residual Viscosity in % [3, 14] [%]	Residual Viscosity in % [3, 15] [%]	Residual Viscosity in % [3, 16] [%]	Residual Viscosity in % [3, 17] [%]	Residual Viscosity in % [3, 18] [%]	Residual Viscosity in % [3, 19] [%]	time for the onset of the convulsions [4] [s]	prevention of intrabronchial desquamation and reactive hyperplasia of the mucosa [5] [%]	LD50 ([6]; ip, i.p) [mg/kg]	ED50 [7, 20] [mg/kg]	LD50 ([6]; iv, e.v.) [mg/kg]	LD50 ([6]; po, os) [mg/kg]	further results
CC(=O)N[C@@H](CS)C(=O)O [AC, N-acetylcysteine]	91	86	66	16	87	82	68	62	40	33	210	≤ 50	400	830			
CC(=O)Oc1ccccc1C(=O)O [ASA, acetylsalicylic acid]																	ED50 ([7]; read-out: DE50): 100 mg/kg
NC(CSCC(=O)O)C(=O)O (stereo not drawn) [CM, S-carboxymetylcystine]				29								≤ 50					values lower than those obtained with the MP compound ([1]; tests of Tables 1 and 2 (mucin and excreta) repeated, relative to MP): 30%; DE50 ([7]; esophagus probe one hour before 0.05 ml 1% carragenin s.c. in right hind paw, paw volume after three hours): not measurable
O=C(O)CNC(=O)CCS [MP, beta-mercaptopropionylamidoacetic acid]	88	84	65	16	82	78	63	56	40	31	210	≤ 50					DL50 ([8]; e.v.): 3.10 g/kg; DL50 ([8]; i.p): 1.54 g/kg; DL50 ([8]; os): 3.20 g/kg; DE50 ([7]; esophagus probe one hour before 0.05 ml 1% carragenin s.c. in right hind paw, paw volume after three hours, 180 min): 785 mg/kg
CC(S)C(=O)NCC(=O)O (stereo not drawn) [MP/A, alpha-mercaptopropionylamidoacetic acid]				14.5							200	≤ 50	1280	780	2240	2190	values obtained compared with the beta isomer (MP) ([1]; tests of Tables 1 and 2 (mucin and excreta) repeated): substantially the same as those obtained with the beta isomer (MP)
O=C(O)CNC(=O)CCS [MPCa, calcium salt of beta-mercapto propionylamidoacetic acid]	83	75	59	12.5	76	71	44	36	32	24	250		1710	650	3470	3510	dose excreted at 5 h ([9]; po, rats, 0.8 g/kg orally, after 5 hours, read-out: urinary elimination, % of the amount administered): ~20%; time of maximum velocity of urinary excretion ([9]; rats, 0.8 g/kg orally): two; dose excreted at 5 h ([9]; 0.8 g/kg rectal suppository, within the first five hours, read-out: cumulative amount in per cent eliminated in the urine): ~12%; bronchospasmic manifestations ([10]; aerosol treatment, plethysmograph in broncholabile patients): no bronchospasmic manifestations were observed; average increase in VEMS [10, 21]: 15%; average increase in vital capacity [10, 21]: 20%; reduction of residual volume [10, 21]: about 20%; diminuition of excreta viscosity ([10]; muco-purulent expectoration): 50%; diminuition of excreta viscosity ([10]; purulent expectoration): 70%; surfactant level (phospholipids, fatty acid content) compared with the control group [11]: No significant differences; persistence of the -SE groups in the cells of the bronchial mucosa ([2]; D.D.D. coloration): almost complete persistence; reduction of calyciform hyperplasia ([2]; bronchial mucosa, P.A.S. coloration, less than control group): 40%; number of muciparous cells ([2]; bronchial mucosa, histological and histochemical tests): significant reduction; tolerability [12]: Very good tolerability; effects on the mothers and on the characteristics of the offspring [13]: no negative effects; increase of time for the onset of the convulsions ([4]; 48 hours after administration): 30%; prevention of intrabronchial desquamation and reactive hyperplasia of the mucosa ([5]; listed as The new compound): 65%
